Results: US20060094668A1 (Wyeth, priority 2004, published 2006)
One block for each compound: values may come before it.

Tests used:
[1] = literature case reports and studies; cited from earlier work
clinical [2] = conditions: human, in vivo; for AUC(0-t): AUC0-12 h; for Vd: Vss
Procedure: One (1) hour after a medium-fat meal, and after a predose 7-mL blood sample for a baseline tigecycline PK analysis, each subject received a single 100-mg dose of tigecycline.
Venous blood samples (7 mL each) for determination of tigecycline concentrations in serum were collected at the following times: on day 1, predose (within 2 hours before the start of the tigecycline infusion), and at 0.5 (end of infusion), 1, 1.5, 2, 3, 4, 6, 8,12,16, 24, 36, 48, 72, and 96 hours after tigecycline administration; and on day 19, predose, and at 0.5 (end of infusion), 1,1.5, 2, 3, 4, 6, 8, 12,16, 24, 36, 48, 72, and 96 hours after tigecycline administration.
Serum tigecycline samples were analyzed by a validated liquid chromatography/tandem mass spectroscopy (LC/MS/MS) method.
Tigecycline peak serum concentration (Cmax) and time to peak concentration (tmax) were reported from the observed data. Concentrations that were judged to be in the terminal phase were used to obtain the terminal-phase disposition rate constant (λz) by log-linear regression. The half-life (t1/2) was calculated as 0.693/λz. Tigecycline concentrations over the time period from hours 24 to 96 were used to estimate the t1/2.
Total AUC0-εr and AUMC were estimated as follows: AUC=(AUCt)+Ct/λz, and AUMC=(AUMCt)+tlast·Ct/λz+Ct/λz●2
The IV clearance (CL) was calculated and normalized by body weight (WT) as follows: CL=Dose/(AUC●WT). The apparent Vss was estimated by Vss=CL·MRT.
For this period of the study, the MRT was calculated as: MRT=(AUMC0-t+(t·Ctλz))/AUC0-t.
According to linear PK theory, (Gibaldi M, Perrier D. Pharmacokinetics. Marcel Dekker, Inc., 1982) the total AUC after a single dose (AUC0-∞) is equal to AUC over the dose interval τ at steady state (AUC0 τ).
For statistical comparisons, AUC, MRT, and Vss on day 1 (period 1) were based on concentrations normalized to the 50-mg tigecycline dose given during period 3.
(§1) Geometric least-squares (GLS) mean ratios of tigecycline PK parameters were computed, and their associated 90% confidence intervals (Cls) calculated based on least squares means and the mean square error obtained from the 2-way ANOVA. […] The SAS statistical software package was used for all statistical analyses.

clinical [3] = conditions: human, in vivo
Procedure: Both study medications were always administered 1 hour after a medium-fat meal. Tigecycline was administered intravenously (IV) in […] sterile normal saline over 30 minutes for all doses.
At approximately 8 AM, each subject received 100 mg of tigecycline. […] At approximately 8 PM, each subject received 50 mg of tigecycline.
In addition, on days 16 through 18, each subject received 50 mg of tigecycline every 12 hours (at approximately 8 AM and 8 PM).
All samples were collected from an indwelling catheter or by direct venipuncture into blood collection tubes containing ethylenediaminetetraacetic acid.
The Cmax and tmax values were taken directly from the observed data. The λz and t1/2 values were not estimable because blood samples were not collected during the terminal disposition phase.
Vss/F and MRT could not be calculated because λz could not be estimated.
as §1

[4] = Urinary digoxin pharmacokinetics (Ae, CLr), digoxin alone vs with tigecycline; conditions: N = 20; for CL renal: human, urine and plasma, oral, 0.25 mg, CLr
Text: In addition, a 24-hour urine collection (day 14 to day 15) for PK analysis was completed for each subject.
Subjects were required to void completely at the end of the predose period and at the end of each time interval after dose administration to ensure a complete interval collection.
Pharmacodynamic Assessments

[5] = format: in vivo, human
Text: On each day before the start of study periods 1 and 2 (day-1 and day 6), all subjects underwent physical examinations, laboratory tests, vital sign assessments, and a standard 12-lead electrocardiogram (ECG), which included measurements of rhythm, heart rate, PR, QRS, QT, and QTc intervals. Adverse event monitoring was continuous, and blood samples for PK analysis was completed at the designated times throughout all study periods. Before dose administration on days 1, 7 and 15, 3 complete ECGs were performed for each subject, and the mean value used as the subject's baseline for each corresponding period.
Twelve (1 2)-lead ECGs were performed at screening, on day-1, on days 1, 7, 14, 15, and 19 within 2 hours before study drug administration, on days 2 through 6, 8 through 13, 16 through 18, 20, 21, and 22, and at the final evaluation at approximately 8 AM.
Descriptive statistics were obtained for all demographic characteristics, drug concentrations, PK parameters, and changes from baseline in ECG parameters. Analysis of variance (ANOVA) was performed on the natural logarithm-transformed PK parameters to evaluate treatment and subject effects. An analysis of the change from baseline in ECG parameters with and without multiple-dose tigecycline administration was conducted by using ANOVA, which included terms for subject and treatment effects. […]

SMILES: CC[C@H]1OC(=O)[C@H](C)[C@@H](O[C@H]2C[C@@](C)(OC)[C@@H](O)[C@H](C)O2)[C@H](C)[C@@H](O[C@@H]2O[C@H](C)C[C@H](N(C)C)[C@H]2O)[C@](C)(OC)C[C@@H](C)C(=O)[C@H](C)[C@@H](O)[C@]1(C)O [Clarithromycin]
effect on plasma levels of digoxin [1]: increase plasma levels of digoxin, sometimes to toxic levels

effect on the AUC, CL, or MRT of tigecycline (clinical [2]): did not affect
concentration at 0 h (clinical [3]): 0.405 ng/mL
concentration at 0.5 h (clinical [3]): 0.686 ng/mL
concentration at 1 h (clinical [3]): 1.02 ng/mL
concentration at 2 h (clinical [3]): 0.966 ng/mL
concentration at 4 h (clinical [3]): 0.645 ng/mL
concentration at 6 h (clinical [3]): 0.517 ng/mL
concentration at 8 h (clinical [3]): 0.531 ng/mL
concentration at 10 h (clinical [3]): 0.451 ng/mL
concentration at 12 h (clinical [3]): 0.405 ng/mL
concentration at 16 h (clinical [3]): 0.383 ng/mL
concentration at 24 h (clinical [3]): 0.33 ng/mL
SMILES: C[C@H]1O[C@@H](O[C@H]2[C@@H](O)C[C@H](O[C@H]3[C@@H](O)C[C@H](O[C@H]4CC[C@@]5(C)[C@H](CC[C@@H]6[C@@H]5C[C@@H](O)[C@]5(C)[C@@H](C7=CC(=O)OC7)CC[C@]65O)C4)O[C@@H]3C)O[C@@H]2C)C[C@H](O)[C@@H]1O [Digoxin]
Ae, urinary digoxin, Geo. Mean [4]: 40.3%
CL renal ([4]; digoxin renal clearance, Mean ± SD): 1.82 ± 0.37 mL/min/kg
CL renal ([4]; digoxin, Geo. Mean): 1.79 mL/min/kg
Ae, urinary digoxin, Mean ± SD ([4]; percentage of dose excreted unchanged in urine 0-24 h): 41.3 ± 9.0%

SMILES: CN(C)c1cc(NC(=O)CNC(C)(C)C)c(O)c2c1C[C@H]1C[C@H]3[C@H](N(C)C)C(O)=C(C(N)=O)C(=O)[C@@]3(O)C(O)=C1C2=O [Tigecycline]
clearance (clinical [2]): 3.7 mL/min/kg
half-life (clinical [2]): 26.7 h
AUC(0-t) (clinical [2]; serum tigecycline, Geo. Mean): 2450 ng·h/mL
AUC(0-t) (clinical [2]; serum tigecycline, Mean ± SD): 2480 ± 379 ng·h/mL
AUC (clinical [2]; AUC, serum tigecycline, Mean ± SD): 2840 ± 732 ng·h/mL
MRT (clinical [2]; serum tigecycline, Geo. Mean): 29 h
MRT (clinical [2]; serum tigecycline, Mean ± SD): 30 ± 8.3 h
Vd (clinical [2]; serum tigecycline, Geo. Mean): 6.43 L/kg
Vd (clinical [2]; serum tigecycline, Mean ± SD): 6.53 ± 1.3 L/kg
clearance (clinical [2]; iv): 3.82 mL/min/kg
effect on steady-state digoxin PD as measured by changes from baseline in ECG parameters ([5]; PR, QRS, QT, QTc intervals at 24 hours): did not produce significant changes
QT interval, change from baseline ([5]; in vivo): not changed further
